Experimental data reported in patent US11530196B2, “Pyrimidine compound acting on EGFR and ERBB2” (CHINA RESOURCES PHARMACEUTICAL HOLDINGS COMPANY LIMITED, priority 2019, dated 2022).

Legend:
[1] = Compound stability test in plasma (mouse); format: in vitro ADME
Method: In this study, mouse, SD rat, Beagle, cynomolgus monkey and human plasma were used as materials to investigate the stability of the tested compounds in the plasma of the above five species. Propantheline, Enalapril, Bisacodyl and Procaine were used as control compounds.
The experimental conditions for the test compounds were as follows: • test concentration: 2 μM (DMSO ≤0.5%); • incubation times: 0, 10, 30, 60 and 120 minutes; • frozen plasma (from multiple species) was used in the test system; • incubation conditions: 37° C.
The mixed frozen plasma was thawed in a 37° C. water bath prior to the experiment. Plasma was centrifuged at 4000 rpm for 5 minutes and cleared if there was a clot. The pH will be adjusted to 7.4±0.1 if required.
The intermediate solution of 1 mM compound and positive control was prepared by diluting 10 mM stock solution with 90 μL of dimethyl sulfoxide. 100 μM solution was prepared by diluting 20 μL of intermediate solution (1 mM) with 180 μL of 45% methanol/water.
2 μL of 100 μM solution was added to 98 μL of blank plasma to achieve a final concentration of 2 μM (in duplicate) of the sample, and the sample was incubated in a 37° C. water bath. At each time point (0, 10, 30, 60 and 120 min), 400 μL of termination solution (200 ng/mL toluenesulfonylurea and 200 ng/mL labetalol, 50% ACN/MeOH) was added to precipitate the proteins and mixed thoroughly. […]

[2] = molecular target: BaF3 ERBB2 A775_G776 ins YVMA (Homo sapiens, UniProt P04626, DUP772-775, cells depend on it); test: Anti-proliferation against Ba/F3 exon 20 insertion mutant cells (ERBB2 YVMA); format: cell-based, mouse; settings: CTG, 72 hours, read-out: Mutant cells IC50 (anti-proliferation)
Chain of BaF3 ERBB2 A775_G776 ins YVMA (P04626 with tags, fused parts or gaps DUP772-775): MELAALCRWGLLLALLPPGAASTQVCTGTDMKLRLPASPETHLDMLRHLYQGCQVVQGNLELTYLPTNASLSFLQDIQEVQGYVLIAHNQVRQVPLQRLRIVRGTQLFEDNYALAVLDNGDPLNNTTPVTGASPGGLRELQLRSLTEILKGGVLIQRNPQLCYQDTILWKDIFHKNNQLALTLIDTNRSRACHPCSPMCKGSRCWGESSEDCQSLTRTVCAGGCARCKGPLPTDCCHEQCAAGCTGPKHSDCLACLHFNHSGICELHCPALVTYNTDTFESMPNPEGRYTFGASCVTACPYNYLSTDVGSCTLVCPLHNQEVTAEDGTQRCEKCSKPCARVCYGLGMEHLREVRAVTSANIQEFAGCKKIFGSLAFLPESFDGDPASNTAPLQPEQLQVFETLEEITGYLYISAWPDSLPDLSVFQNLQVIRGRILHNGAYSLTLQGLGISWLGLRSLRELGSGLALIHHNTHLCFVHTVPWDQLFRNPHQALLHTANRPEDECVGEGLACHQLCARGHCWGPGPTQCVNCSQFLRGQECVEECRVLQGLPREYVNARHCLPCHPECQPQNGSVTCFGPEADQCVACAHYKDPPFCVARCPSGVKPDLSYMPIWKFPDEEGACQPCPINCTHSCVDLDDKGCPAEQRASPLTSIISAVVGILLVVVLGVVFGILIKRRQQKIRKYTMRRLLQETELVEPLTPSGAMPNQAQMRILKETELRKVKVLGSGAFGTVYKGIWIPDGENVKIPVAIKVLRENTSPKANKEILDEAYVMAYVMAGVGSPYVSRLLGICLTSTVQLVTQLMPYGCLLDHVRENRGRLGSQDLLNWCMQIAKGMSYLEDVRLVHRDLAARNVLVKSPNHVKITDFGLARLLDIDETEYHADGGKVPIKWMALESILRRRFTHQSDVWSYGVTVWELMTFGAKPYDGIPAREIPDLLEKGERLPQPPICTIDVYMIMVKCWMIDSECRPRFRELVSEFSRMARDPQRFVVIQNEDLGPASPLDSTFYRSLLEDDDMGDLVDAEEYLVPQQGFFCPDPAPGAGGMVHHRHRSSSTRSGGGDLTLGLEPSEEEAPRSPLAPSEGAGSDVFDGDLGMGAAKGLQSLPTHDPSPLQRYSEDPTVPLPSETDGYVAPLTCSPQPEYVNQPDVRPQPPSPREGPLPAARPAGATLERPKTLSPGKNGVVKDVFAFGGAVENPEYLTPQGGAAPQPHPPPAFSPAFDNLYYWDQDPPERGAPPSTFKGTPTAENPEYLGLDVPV
Source text: RPMI1640 medium was purchased from Hyclone, FBS fetal bovine serum was purchased from GBICO, and trypsin-EDTA were both purchased from Giboco. DPBS was purchased from Corning, penicillin/streptomycin solution was purchased from Hyclone, and Cell-Titer Glo reagent was purchased from Promega (Cat. No. G7572). Ba/F3 EGFR-D770_N771insSVD, Ba/F3 EGFR-H773_V774insNPH, Ba/F3 EGFR-V769_D770insASV, BaF3 ERBB2 A775_G776 ins YVMA, the cell lines were constructed by Beijing Kang Yuan Bochuang Biotechnology Co., Ltd. Plate reading instrument: Envision (PerkinElmer).
Cells in logarithmic growth phase were harvested and cell counts were performed using a […]. Cell viability was detected by the Taipan Blue rejection assay. The cell concentration was adjusted; the cell suspension was added to a 96-well plate separately. Cells in 96-well plates were incubated overnight at 37° C., 5% CO2, and 95% humidity. […] The cell plate was placed at room temperature to stabilize the cold light signal, and the cold light values were read. The data were analyzed using GraphPad Prism 7.0 software, and a nonlinear S-curve regression was used to fit the data to derive the dose-effect curve from which the IC50 values were calculated. […]

[3] = test system: HuPrime lung cancer LU0387 subcutaneous xenograft tumor; test: HuPrime lung cancer LU0387 subcutaneous xenograft BALB/c nude mouse model; format: in vivo, BALB/c Nude mice
Method: The antitumor effects of the test drug in HuPrime® lung cancer LU0387 subcutaneous xenograft BALB/C nude mouse were evaluated.
BALB/c Nude mice, female, 7-8 weeks, HuPrime® lung cancer xenograft model LU0387 tumor-bearing mouse tumor tissue.
BALB/c nude mice were subcutaneously inoculated with HuPrime® model LU0387 tumor blocks to establish a human lung cancer subcutaneous transplantation tumor model. The test was divided into a solvent control group and a test drug group. The drug was administered by gavage, once daily for 21 days. Efficacy was evaluated based on relative tumor inhibition rate (TGI), and the safety was evaluated based on animal weight change and mortality.
Tumor diameters were measured with vernier calipers twice a week. The calculation formula of tumor volume was: V=0.5a×b^2, wherein a and b represented the long and short diameters of the tumor, respectively.
The antitumor efficacy of the compounds was evaluated by TGI (%) or relative tumor proliferation rate T/C (%).
Relative tumor proliferation rate T/C (%)=TRTV/CRTV×100% (TRTV: mean RTV in the treatment group; CRTV: mean RTV in the solvent control group).
The relative tumor volume (RTV) was calculated according to the results of tumor measurement. The calculation formula was RTV=Vt/V0, wherein V0 was the tumor volume measured at the time of group administration (i.e., D0), and Vt was the tumor volume corresponding to a certain measurement. TRTV and CRTV were taken on the same day.
TGI (%), reflecting the tumor growth inhibition rate. TGI (%)=[(1−(average tumor volume at the end of administration of a treatment group−average tumor volume at the beginning of administration of this treatment group))/(average tumor volume at the end of treatment in the solvent control group−average tumor volume at the beginning of treatment of the solvent control group)]×100%.

In vitro plasma stability (Residual percentage) ([1]; 120 minutes, 2 μM, 37° C.): 45% | half-life at 2 µM ([1]; pH 7.4, 37° C., read-out: In vitro plasma half-life T1/2): 1.81 h | GI50 [2]: 37 nM
SMILES: C=CC(=O)Nc1cc(Nc2ncc(C(=O)OC(C)C)c(-c3cn(OC)c4ccccc34)n2)c(OC)cc1N(C)CCN(C)C.CS(=O)(=O)O [Compound 1]
Tumor volume (Day 0) ([3]; Day 0, mean ± standard error, n = 6): 122.13 ± 3.12 mm^3 | RTV ([3]; Day 20, gavage once daily): 0.14 ± 0.08 | T/C ([3]; Day 20, gavage once daily): 2% | TGI ([3]; Day 20, gavage once daily): 114% | Tumor volume (Day 20) ([3]; Day 20, gavage once daily): 16.97 ± 10.54 mm^3
